Results as given in article PMC8776337, “Peptides Derived from Vascular Endothelial Growth Factor B Show Potent Binding to Neuropilin‐1” (Chembiochem, 2021).
Read-outs that look alike come from different tables or passages of the source. Positions of bridges follow the written chain, without caps; N, C: chain ends. Residues, ends and D or L forms follow the SMILES beside them. *: point of attachment. Palmitoyl = CCCCCCCCCCCCCCCC(=O)*; Hept6ynoyl = C#CCCCCC(=O)*

What was measured:
[1] = molecular target: T1, NRP1‐b1 (Homo sapiens, UniProt O14786); assay: SPR binding of peptides to immobilised NRP1-b1; details: for Receptor occupancy: immobilised NRP1-b1
T1 construct: the immobilized b1 domain of NRP1 (NRP1‐b1); poly-histidine (TEV-cleavable) (cleaved yes); made in house; host or cells: E. coli Rosetta (DE3)
T1 sequence (O14786 275-424 limits assumed): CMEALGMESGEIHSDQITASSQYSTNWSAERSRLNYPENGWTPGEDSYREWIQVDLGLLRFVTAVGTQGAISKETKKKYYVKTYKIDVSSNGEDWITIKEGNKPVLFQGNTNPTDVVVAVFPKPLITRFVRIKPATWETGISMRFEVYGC
Description: We then designed four additional peptides with added lipid chains (Figures 3 and 4). We investigated the effect of lipidation on the N‐terminus (MGC0171 and MGC0174) and on the side chain of a lysine in close proximity to the C‐terminus (MGC0172 and MGC0173) as shown (Figure 5). For the SPR analysis of the lipidated peptides we fitted data to a two‐state reaction model to account for the nonspecific binding of the palmitoyl side chains. Since the model assumes two binding events it provides two association (k a) and dissociation (k d) rates, and the overall equilibrium dissociation constant is calculated using the equation: KD=KD1(1+KD2), in which KD1 and KD2 are obtained as […]. The inverse of the dissociation rate corresponds to the residence time. […] The lipidated peptides were also tested for inhibition of VEGF‐A165 binding to NRP1 in a cell‐based assay (Figure 8).
Surface plasmon resonance: SPR measurements were performed using either Biacore T200 or Biacore 4000 at a constant temperature of 25 °C. All sensor chips, stock buffers, and immobilisation reagents were purchased from GE Healthcare/Cytvia and were prepared according to the manufacturer's instructions.
Chip preparation: PBS containing 0.05 % surfactant P20 was used as the running buffer during immobilisation. Proteins were immobilised onto a CM5 chip using random amine coupling following a standard procedure using the conditions specified in Table 2. A flow cell upstream of the treated flow cell was used as a reference which allowed removal of non‐specific binding to the chip.
Kinetic measurements of peptides: Peptides were injected over immobilized NRP1‐b1 for 60 s, followed by 120 or 180 s dissociation. The surface was regenerated with 1 M NaCl between injections. The SPR response curves were fit to a binding model to obtain association (ka ) and dissociation (kd ) rates which were then converted into equilibrium dissociation constant (KD ) and residence time. For a 1 : 1 binding model […] and for a two‐state binding model KD=K1(1+K2). Residence time was calculated as 1/kd .

[2] = system: VEGF‐A165 stimulated phosphorylation in HUVECs; assay: Western blot of VEGF-A-stimulated phosphorylation of downstream signalling proteins in HUVECs; format: cell-based, human; details: HUVECs pre-treated 30 min with 10 μM peptide, then VEGF-A165 10 min
Description: Figure 7 Effect of VEGF ‐ derived peptides on VEGF‐A ‐stimulated phosphorylation of downstream signalling proteins as probed by Western blot. A) VEGF‐B167 derived peptide MGC0123. B) VEGF‐A165 derived peptide MGC0124. HUVECs were pre‐treated for 30 min with peptide (10 μM) then stimulated for 10 minutes with VEGF‐A165.
Cell culture: Human umbilical vein endothelial cells (HUVECs) were cultured in t75 cm2 flasks for a maximum of 2 passages in EGM Endothelial Cell Growth Medium (#CC‐3124, Lonza, USA) supplemented with 10 % FBS. Cells were split into 6‐well‐plates and allowed to grow to ∼80 % confluence. Cells were starved by incubating in 0.5 % FBS serum EGM overnight and serum‐free EGM for 1 h directly before stimulation. Human DU145 cells for the cell‐based assay (see below) were cultured in t75 cm2 flasks in DMEM supplemented with 10 % FBS.
Immunoblotting: Cells were pre‐treated with the indicated peptide (10 μM) for 30 minutes prior to treatment with VEGF‐A165 at the indicated concentrations for 10 minutes. Cells were lysed in a solution containing Tris⋅HCl (pH 7.5, 50 mm), Triton X‐100 (1 %), NaCl (150 mm), EDTA (5 mm), complete protease inhibitor (Roche) and phosphatase inhibitors I and II (Sigma) and analysed by SDS‐PAGE with 4–12 % Bis⋅Tris gels (Nupage, Invitrogen), followed by electrotransfer onto Invitrolon PVDF membranes (Invitrogen). Membranes were blocked with non‐fat dry milk (5 % w/v) and Tween‐20 (0.1 % v/v) in tris‐buffered saline (TBS‐T), for 1 h at room temperature, before being probed with the primary antibody by overnight incubation at 4 degrees C, followed by incubation for 1 h at room temperature with a horseradish‐ peroxidase‐linked secondary antibody (Santa Cruz) and detection with the aid of ECL plus reagents (GE Healthcare, Little Chalfont, UK), by the manufacturer's protocol.

[3] = molecular target: T2, bt‐VEGF‐A165 binding to NRP1 in HUVEC cells (Homo sapiens, UniProt O14786); assay: Cell based binding assay, inhibition of bt-VEGF-A165 binding to NRP1; details: bt-VEGF-A165 4 nM
T2 construct: expressed in transfected cells
T2 sequence (O14786 22-923): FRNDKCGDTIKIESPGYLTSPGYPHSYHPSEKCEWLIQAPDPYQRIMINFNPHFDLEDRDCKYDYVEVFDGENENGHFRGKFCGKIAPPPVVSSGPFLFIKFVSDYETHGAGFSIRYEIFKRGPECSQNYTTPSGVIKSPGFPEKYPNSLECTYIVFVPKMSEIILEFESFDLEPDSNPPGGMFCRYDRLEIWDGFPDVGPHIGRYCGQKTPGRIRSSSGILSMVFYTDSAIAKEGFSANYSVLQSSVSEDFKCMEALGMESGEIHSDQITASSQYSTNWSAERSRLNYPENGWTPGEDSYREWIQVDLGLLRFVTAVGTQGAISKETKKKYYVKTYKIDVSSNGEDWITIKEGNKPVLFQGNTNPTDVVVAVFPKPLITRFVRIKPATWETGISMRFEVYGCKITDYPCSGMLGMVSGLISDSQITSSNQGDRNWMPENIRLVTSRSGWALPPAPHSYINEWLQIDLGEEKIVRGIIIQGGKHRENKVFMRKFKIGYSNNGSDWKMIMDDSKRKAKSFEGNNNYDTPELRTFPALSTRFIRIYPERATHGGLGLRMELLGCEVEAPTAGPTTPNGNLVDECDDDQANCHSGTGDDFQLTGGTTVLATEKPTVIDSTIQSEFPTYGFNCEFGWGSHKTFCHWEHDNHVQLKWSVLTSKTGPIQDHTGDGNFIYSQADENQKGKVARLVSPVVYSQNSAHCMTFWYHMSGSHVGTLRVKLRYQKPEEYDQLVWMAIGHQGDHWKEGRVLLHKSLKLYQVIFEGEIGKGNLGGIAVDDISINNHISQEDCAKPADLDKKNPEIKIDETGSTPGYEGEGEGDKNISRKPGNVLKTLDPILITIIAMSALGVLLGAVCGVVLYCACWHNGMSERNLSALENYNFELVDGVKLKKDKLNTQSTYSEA
Description: A) N‐terminal palmitoyl VEGF‐B167 derived peptide MGC0174. B) Lysine palmitoyl peptide MGC0173. C) N‐terminal palmitoyl VEGF‐A165 derived peptide MGC0171. D) Lysine VEGF‐A165 palmitoyl peptide MGC0172.
Cell based binding assay for bt‐VEGF binding to NRP1‐b1: A flat‐bottomed 96 well plate was coated with 100 μL 10 μg/mL Poly‐D‐lysine (110 μL in 10890 μL PBS) and incubated for 1 hour at R.T. DU145 cells were seeded at a concentration of 20,000 DU145 cells/well in DMEM with 10 % FBS and incubated for 4 hours. Cells were then infected with 0.3 μL per well of adenovirus expressing NRP1 (stock at 1×1012 vp/mL) and incubated for 40 hours. The media was removed followed by washing cells twice in 200 μL of PBS per well. The plate was placed on ice and 50 μL of binding medium was added per well for total binding. Next, 50 μL of 100‐fold excess (100×btVEGF‐A165) of unlabelled‐VEGF (diluted in binding medium) was added per well for non‐specific binding. Peptides (50 μL) at the indicated concentrations were diluted in binding medium and added to specified wells. bt‐VEGF (50 μL of 4 nM; diluted in binding medium) was added per well for both total and non‐specific binding and samples. The plate was incubated at 4 °C for 2 hours. The plate was then placed on ice and the medium was removed followed by gently washing the cells 3 times in 200 μL of PBS per well.
Streptavidin‐horseradish peroxidase (100 μL; dilute to the working concentration specified on the vial label using PBS+1 % BSA=1 : 200) was added to each well. The plate was sealed and incubated for 30 minutes at room temperature. Three more washes with 200 μL PBS were done. Then, 100 μL of substrate solution was added to each well (protected from light). Colour Reagent A and B were mixed together in equal volumes within 15 minutes of use. The plate was sealed and incubated for 20 minutes at room temperature. Stop solution (50 μL) was added to each well ensuring even mixing. The plate was read using Tecan Genios plate reader using a 450 nm cut‐off filter and also with a reference 595 nm cut‐off filter. Nonspecific binding was determined in the absence of NP‐1 coated on the microplate.

[4] = SPR, immobilised NRP1-b1, 25 °C, 1:1 model, or first residence time of the two-state model, read-out: Residence time (1/kd) (converted)

residence time [1, 4] [min]	IC50 ([3]; 4 °C, 2 h, streptavidin-horseradish peroxidase detection, read-out: IC50, cell‐based activity (HUVECs), inhibition of bt‐VEGF‐A165 binding to NRP1) [nM]	HS (of the inhibition curve of bt‐VEGF‐A165 binding to NRP1) ([3]; HUVEC cells)	residence time ([1]; SPR, immobilised NRP1-b1, 25 °C, two-state model, lipidated peptides, read-out: Second residence time calculated from two‐state model (converted)) [min]	Kd ([1]; SPR, peptide injected 60 s over NRP1-b1 immobilised on CM5 chip, 25 °C, 1:1 model for MGC0122/0123/0124, two-state model for lipidated peptides, read-out: KD, SPR binding to NRP1‐b1) [nM]	Structure (SMILES)	Receptor occupancy ([1]; SPR) [%]	residence time ([1]; read-out: Residence time (1/kd)) [min]	VEGF‐A165 dependent ERK phosphorylation [2]	VEGF‐A165 dependent VEGFR2 phosphorylation [2]	VEGF‐A mediated P130Cas phosphorylation [2]	VEGF‐A mediated Paxillin phosphorylation [2]
0.0362					C#CCCCCC(=O)N[C@@H](CC(=O)O)C(=O)N[C@@H](CCCNC(=N)N)C(=O)N[C@@H](C)C(=O)N[C@@H](C)C(=O)N[C@H](C(=O)N1CCC[C@H]1C(=O)N[C@@H](Cc1c[nH]cn1)C(=O)N[C@@H](Cc1c[nH]cn1)C(=O)N[C@@H](CCCNC(=N)N)C(=O)N1CCC[C@H]1C(=O)N[C@@H](CCC(N)=O)C(=O)N1CCC[C@H]1C(=O)N[C@@H](CCCNC(=N)N)C(=O)O)[C@@H](C)O [MGC0122] (Hept6ynoyl-DRAATPHHRPQPR-OH)						
					C#CCCCCC(=O)N[C@@H](CCCNC(=N)N)C(=O)N[C@H]1CSSC[C@@H]2NC(=O)[C@H]([C@@H](C)O)NC(=O)[C@H](CC(=O)O)NC(=O)[C@@H]3CCCN3C(=O)[C@H](CC(N)=O)NC(=O)[C@H](CC(C)C)NC(=O)[C@H](CCC(=O)O)NC(=O)[C@H](CC(C)C)NC(=O)CNC(=O)[C@H](CCCNC(=N)N)NC(=O)CNC(=O)[C@H](CCC(N)=O)NC(=O)[C@H](CSSC[C@@H](C(=O)N[C@@H](CCCNC(=N)N)C(=O)N[C@@H](CCCCN)C(=O)N[C@@H](CC(C)C)C(=O)N[C@@H](CCCNC(=N)N)C(=O)N[C@@H](CCCNC(=N)N)C(=O)O)NC(=O)[C@H](CCCNC(=N)N)NC2=O)NC(=O)[C@H](CCCNC(=N)N)NC(=O)[C@H](CC(C)C)NC(=O)[C@H](Cc2ccccc2)NC(=O)[C@H](CO)NC(=O)[C@H](CCCNC(=N)N)NC(=O)[C@H](CCCNC(=N)N)NC(=O)[C@H](CCCNC(=N)N)NC1=O [MGC0123] (Hept6ynoyl-RCRRRSFLRCQGRGLELNPDTCRCRKLRR-OH; disulfide 2-22, 10-24)	54±3	0.308	dramatically inhibited	dramatically inhibited	also inhibited	also inhibited
0.0117					C#CCCCCC(=O)N[C@@H](CO)C(=O)N[C@H]1CSSC[C@@H]2NC(=O)[C@H]([C@@H](C)O)NC(=O)[C@H](CCCNC(=N)N)NC(=O)[C@H](CCC(=O)O)NC(=O)[C@H](CC(N)=O)NC(=O)[C@H](CC(C)C)NC(=O)[C@H](CCC(=O)O)NC(=O)[C@H](CC(C)C)NC(=O)[C@H](CCC(N)=O)NC(=O)[C@H](CCCNC(=N)N)NC(=O)[C@H](C)NC(=O)[C@H](CCCCN)NC(=O)[C@H](CSSC[C@@H](C(=O)N[C@@H](CC(=O)O)C(=O)N[C@@H](CCCCN)C(=O)N3CCC[C@H]3C(=O)N[C@@H](CCCNC(=N)N)C(=O)N[C@@H](CCCNC(=N)N)C(=O)O)NC(=O)[C@H](CCCNC(=N)N)NC2=O)NC(=O)[C@H](CCCNC(=N)N)NC(=O)[C@H](CO)NC(=O)[C@H](CC(=O)O)NC(=O)[C@H]([C@@H](C)O)NC(=O)[C@H](CC(N)=O)NC(=O)[C@H](CCCCN)NC1=O [MGC0124] (Hept6ynoyl-SCKNTDSRCKARQLELNERTCRCDKPRR-OH; disulfide 2-21, 9-23)	84±1		little effect	strongly reducing	little effect	little effect
0.0883	1700	1.7	1.58	3320 ± 160	CCCCCCCCCCCCCCCC(=O)N[C@@H](CO)C(=O)N[C@H]1CSSC[C@@H]2NC(=O)[C@H]([C@@H](C)O)NC(=O)[C@H](CCCNC(=N)N)NC(=O)[C@H](CCC(=O)O)NC(=O)[C@H](CC(N)=O)NC(=O)[C@H](CC(C)C)NC(=O)[C@H](CCC(=O)O)NC(=O)[C@H](CC(C)C)NC(=O)[C@H](CCC(N)=O)NC(=O)[C@H](CCCNC(=N)N)NC(=O)[C@H](C)NC(=O)[C@H](CCCCN)NC(=O)[C@H](CSSC[C@@H](C(=O)N[C@@H](CC(=O)O)C(=O)N[C@@H](CCCCN)C(=O)N3CCC[C@H]3C(=O)N[C@@H](CCCNC(=N)N)C(=O)N[C@@H](CCCNC(=N)N)C(=O)O)NC(=O)[C@H](CCCNC(=N)N)NC2=O)NC(=O)[C@H](CCCNC(=N)N)NC(=O)[C@H](CO)NC(=O)[C@H](CC(=O)O)NC(=O)[C@H]([C@@H](C)O)NC(=O)[C@H](CC(N)=O)NC(=O)[C@H](CCCCN)NC1=O [MGC0171] (Palmitoyl-SCKNTDSRCKARQLELNERTCRCDKPRR-OH; disulfide 2-21, 9-23)						
